Like-named read-outs stand apart in the source and are kept apart here.
Legend:
Assay type in all cases: biochemical
Pim1 kinase = Pim1 kinase (Homo sapiens, UniProt P11309); test: Pim1 ATP depletion assay;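 also: Luciferase-luciferin luminescence readout of residual ATP after PIM1 transfers phosphate to a peptide substrate, 40 µM ATP added, reaction run to roughly half ATP consumption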
Pim2 kinase = Pim2 kinase (Homo sapiens, UniProt Q9P1W9); test: Pim2 ATP depletion assay;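 also: Luciferase-based luminescent readout of ATP remaining after PIM2 phosphorylates a BAD peptide, final 5 nM enzyme, 4 µM ATP, 10 µM peptide, 2.5% DMSO, run to roughly half ATP consumption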
Chain of Pim2 kinase (Q9P1W9 whole entry): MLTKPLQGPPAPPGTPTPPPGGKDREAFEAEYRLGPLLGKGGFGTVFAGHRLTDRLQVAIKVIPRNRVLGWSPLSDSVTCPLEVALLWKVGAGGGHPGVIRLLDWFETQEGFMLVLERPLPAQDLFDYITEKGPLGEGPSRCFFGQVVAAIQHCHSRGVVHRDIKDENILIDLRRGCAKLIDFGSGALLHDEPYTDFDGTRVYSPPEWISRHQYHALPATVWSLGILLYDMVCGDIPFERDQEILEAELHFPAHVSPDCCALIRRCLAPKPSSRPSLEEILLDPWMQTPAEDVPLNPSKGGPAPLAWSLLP

Pim3 kinase = Pim3 kinase (Homo sapiens, UniProt Q86V86); test: Pim3 ATP depletion assay
[1] = Pim1 ATP depletion assay, read-out: PIM1 IC50
[2] = Pim1 ATP depletion assay, read-out: IC50 (μM) PIM1

Chain of Pim1 kinase (P11309 whole entry): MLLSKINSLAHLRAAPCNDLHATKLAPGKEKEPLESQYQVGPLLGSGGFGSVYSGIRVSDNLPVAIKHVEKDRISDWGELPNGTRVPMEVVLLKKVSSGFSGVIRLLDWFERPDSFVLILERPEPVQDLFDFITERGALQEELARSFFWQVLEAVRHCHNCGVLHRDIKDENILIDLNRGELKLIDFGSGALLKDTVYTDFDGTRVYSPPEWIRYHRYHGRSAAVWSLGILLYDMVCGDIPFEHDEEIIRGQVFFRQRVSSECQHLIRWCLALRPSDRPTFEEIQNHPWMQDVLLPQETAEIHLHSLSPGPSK

| Compound | IC50 (Pim1 kinase; [1]) [µM] | IC50 (Pim2 kinase; read-out: PIM2 IC50) [µM] | IC50 (Pim3 kinase; read-out: PIM3 IC50) [µM] | IC50 (Pim1 kinase; [2]) [µM] | IC50 (Pim2 kinase; read-out: IC50 (μM) PIM2) [µM] | IC50 (Pim3 kinase; read-out: IC50 (μM) PIM3) [µM] | IC50 (Pim1 kinase) [µM] |
| --- | --- | --- | --- | --- | --- | --- | --- |
| Cc1cc(-c2ccncc2NC(=O)c2nc(-c3cc(C(=O)NC(C)C)ccc3F)ccc2N)nc(N)n1 [Example 563, 3-Amino-6-(2-fluoro-5-isopropylcarbamoyl-phenyl)-pyridine-2-carboxylic acid [4-(2-amino-6-methyl-pyrimidin-4-yl)-pyridin-3-yl]-amide] | < 1 | < 1 | < 1 | – | – | – | – |
| Nc1ccc(-c2c(F)cccc2F)nc1C(=O)Nc1cnccc1N1CC[C@H]2OC(=O)N[C@H]2C1 [Example 302, 3-Amino-6-(2,6-difluoro-phenyl)-pyridine-2-carboxylic acid [4-(2-oxo-hexahydro-oxazolo[4,5-c]pyridin-5-yl)-pyridin-3-yl]-amide] | – | – | – | < 1 | < 1 | < 1 | – |
| CC(C)Oc1cncc(-c2ccc(N)c(C(=O)Nc3cnccc3N3CCC[C@H](N)C3)n2)n1 [Example 748, 3-Amino-6-(6-isopropoxy-pyrazin-2-yl)-pyridine-2-carboxylic acid (3-amino-3,4,5,6-tetrahydro-2H-[1,4′]bi-pyridinyl-3′-yl)-amide] | < 1 | < 1 | < 1 | – | – | – | – |
| CC(C)Oc1cncc(-c2nc(C(=O)Nc3cnccc3N3CCC[C@H](N)C3)c(N)cc2F)n1 [Example 739, 3-Amino-5-fluoro-6-(6-isopropoxy-pyrazin-2-yl)-pyridine-2-carboxylic acid (3-amino-3,4,5,6-tetrahydro-2H-[1,4′]bipyridinyl-3′-yl)-amide] | < 1 | < 1 | < 1 | – | – | – | – |
| Nc1cc(F)c(-c2ccncc2)nc1C(=O)Nc1cnccc1N1CCC[C@H](N)C1 [Example 513, 5-Amino-3-fluoro-[2,4′]bi-pyridinyl-6-carboxylic acid (3-amino-3,4,5,6-tetrahydro-2H-[1,4′]bipyridinyl-3′-yl)-amide] | – | – | – | < 1 | < 1 | < 1 | – |
| COc1nccnc1-c1ccc(N)c(C(=O)Nc2cnccc2N2CCC[C@H](N)C2)n1 [Example 694, 3-Amino-6-(3-methoxy-pyrazin-2-yl)-pyridine-2-carboxylic acid (3-amino-3,4,5,6-tetrahydro-2H-[1,4′]bipyridinyl-3′-yl)-amide] | < 1 | < 1 | < 1 | – | – | – | – |
| Nc1ccc(-c2nccs2)nc1C(=O)Nc1cnccc1N1CCC[C@H](N)C1 [Example 632, 3-amino-N-{4-[(3S)-3-aminopiperidin-1-yl]pyridin-3-yl}-6-(1,3-thiazol-2-yl)-pyridine-2-carboxamide] | < 1 | < 1 | < 1 | – | – | – | – |
| CCc1ccnc(-c2ccc(N)c(C(=O)Nc3cnccc3N3CCC[C@H](N)C3)n2)c1 [Example 717, 5-Amino-4′-ethyl-[2,2′]bi-pyridinyl-6-carboxylic acid (3-amino-3,4,5,6-tetrahydro-2H-[1,4′]bipyridinyl-3′-yl)-amide] | < 1 | < 1 | < 1 | – | – | – | – |
| Nc1ccc(-c2cccc(C(F)(F)F)n2)nc1C(=O)Nc1cnccc1N1CCC[C@H](N)C1 [Example 718, 5-Amino-6′-trifluoromethyl-[2,2′]bipyridinyl-6-carboxylic acid (3-amino-3,4,5,6-tetra-hydro-2H-[1,4′]bipyridinyl-3′-yl)-amide] | < 1 | < 1 | < 1 | – | – | – | – |
| Nc1cc(F)cnc1C(=O)Nc1cnccc1N1CCC[C@H](N)C1 [Example 260, 3-amino-N-{4-[(3S)-3-amino-piperidin-1-yl]pyridin-3-yl}-5-fluoropyridine-2-carboxamide] | – | – | – | < 1 | < 1 | < 1 | – |
| NC1CC(CO)CN(c2ccncc2NC(=O)c2nc(-c3c(F)cccc3F)ccc2F)C1 (stereo not drawn) [Example 575, 6-(2,6-Difluoro-phenyl)-3-fluoro-pyridine-2-carboxylic acid (5-amino-3-hydroxymethyl-3,4,5,6-tetrahydro-2H-[1,4′]bipyridinyl-3′-yl)-amide] | < 1 | < 1 | 1 to 10 | – | – | – | – |
| Nc1cnc(-c2ccc(N)c(C(=O)Nc3cnccc3N3CCC[C@H](N)C3)n2)cn1 [Example 729, 3-Amino-6-(5-amino-pyrazin-2-yl)-pyridine-2-carboxylic acid (3-amino-3,4,5,6-tetrahydro-2H-[1,4′]bipyridinyl-3′-yl)-amide] | < 1 | < 1 | < 1 | – | – | – | – |
| Nc1ccc(-c2ncccc2C(F)(F)F)nc1C(=O)Nc1cnccc1N1CCC[C@H](N)C1 [Example 721, 5-Amino-3′-trifluoromethyl-[2,2′]bipyridinyl-6-carboxylic acid (3-amino-3,4,5,6-tetra-hydro-2H-[1,4′]bipyridinyl-3′-yl)-amide] | < 1 | < 1 | < 1 | – | – | – | – |
| Nc1ccc(-c2nccs2)nc1C(=O)Nc1cnccc1N1CC[C@@H](F)[C@H](N)C1 [Example 257, 3-amino-N-{4-[(3R,4R)-3-amino-4-fluoropiperidin-1-yl]pyridin-3-yl}-6-(1,3-thiazol-2-yl)pyridine-2-carboxamide] | – | – | – | < 1 | < 1 | < 1 | – |
| CC(C)NC(=O)c1ccc(F)c(-c2cccc(C(=O)Nc3cnccc3-c3cc(N)nc(C(F)(F)F)n3)n2)c1 [Example 553, 6-(2-Fluoro-5-isopropylcarbamoyl-phenyl)-pyridine-2-carboxylic acid [4-(6 amino-2-trifluoromethyl-pyrimidin-4-yl)-pyridin-3-yl]-amide] | < 1 | < 1 | < 1 | – | – | – | – |
| Nc1ccc(-c2cccc(OCc3ccccc3)n2)nc1C(=O)Nc1cnccc1N1CCC[C@H](N)C1 [Example 695, 5-Amino-6′-benzyloxy-[2,2′]bi-pyridinyl-6-carboxylic acid (3-amino-3,4,5,6-tetrahydro-2H-[1,4′]bipyridinyl-3′-yl)-amide] | < 1 | < 1 | < 1 | – | – | – | – |
| Nc1ccc(-c2c(F)cccc2F)nc1C(=O)Nc1cnccc1N1CCCC(O)C1 (stereo not drawn) [Example 658, 3-Amino-6-(2,6-difluoro-phenyl)-pyridine-2-carboxylic acid (3-hydroxy-3,4,5,6-tetra-hydro-2H-[1,4′]bipyridinyl-3′-yl)-amide] | < 1 | < 1 | < 1 | – | – | – | – |
| Nc1ccc(-c2cc(C(=O)Nc3ccccc3)ccc2F)nc1C(=O)Nc1cnccc1N1CCCC(O)C1 (stereo not drawn) [Example 656, 3-Amino-6-(2-fluoro-5-phenyl-carbamoyl-phenyl)-pyridine-2-carboxylic acid (3-hydroxy-3,4,5,6-tetrahydro-2H-[1,4′]bi-pyridinyl-3′-yl)-amide] | < 1 | < 1 | < 1 | – | – | – | – |
| CC(C)NC(=O)c1ccc(F)c(-c2ccc(N)c(C(=O)Nc3cnccc3N3CC[C@@H](N)[C@H](O)C3)n2)c1 [Example 668, 3-Amino-6-(2-fluoro-5-isopropylcarbamoyl-phenyl)-pyridine-2-carboxylic acid (4-amino-3-hydroxy-3,4,5,6-tetra-hydro-2H-[1,4′]bipyridinyl-3′-yl)-amide] | < 1 | < 1 | < 1 | – | – | – | – |
| Nc1nccc(-c2ccc(N)c(C(=O)Nc3cnccc3N3CCC[C@H](N)C3)n2)n1 [Example 728, 3-Amino-6-(2-amino-pyrimidin-4-yl)-pyridine-2-carboxylic acid (3-amino-3,4,5,6-tetrahydro-2H-[1,4′]bipyridinyl-3′-yl)-amide] | – | < 1 | < 1 | – | – | – | < 1 |
| COC1CCN(c2ccncc2NC(=O)c2nc(-c3cc(C(=O)NC(C)C)ccc3F)ccc2N)CC1N (stereo not drawn) [Example 299, 3-Amino-6-(2-fluoro-5-isopropylcarbamoyl-phenyl)-pyridine-2-carboxylic acid (3-amino-4-methoxy-3,4,5,6-tetra-hydro-2H-[1,4′]bipyridinyl-3′-yl)-amide] | – | – | – | < 1 | < 1 | < 1 | – |
| Nc1ccc(-c2c(F)cccc2F)nc1C(=O)Nc1cnccc1N1CC(N)CC(CF)C1 (stereo not drawn) [Example 278, 3-Amino-6-(2,6-difluoro-phenyl)-pyridine-2-carboxylic acid (5-amino-3-fluoromethyl-3,4,5,6-tetrahydro-2H-[1,4′]bi-pyridinyl-3′-yl)-amide] | – | – | – | < 1 | < 1 | < 1 | – |
| N[C@H]1CCCN(c2ccncc2NC(=O)c2cccc(C3CCCCC3)n2)C1 [Example 635, 6-Cyclohexyl-pyridine-2-carboxylic acid (3-amino-3,4,5,6-tetrahydro-2H-[1,4′]bipyridinyl-3′-yl)-amide] | < 1 | < 1 | < 1 | – | – | – | – |
| CC(=O)c1cccc(-c2ccc(N)c(C(=O)Nc3cnccc3N3CCC[C@H](N)C3)n2)n1 [Example 706, 6′-Acetyl-5-amino-[2,2′]bi-pyridinyl-6-carboxylic acid (3-amino-3,4,5,6-tetrahydro-2H-[1,4′]bipyridinyl-3′-yl)-amide] | < 1 | < 1 | < 1 | – | – | – | – |
| CC(C)/C=C\c1ccc(F)c(-c2ccc(N)c(C(=O)Nc3cnccc3N3CCC[C@H](N)C3)n2)c1 [Example 687, 3-Amino-6-[2-fluoro-5-(3-methyl-but-1-enyl)-phenyl]-pyridine-2-carboxylic acid (3-amino-3,4,5,6-tetrahydro-2H-[1,4′]bipyridinyl-3′-yl)-amide] | < 1 | < 1 | < 1 | – | – | – | – |
| Nc1cnc(-c2ccccc2)nc1C(=O)Nc1cnccc1N1CCCC(O)(C(F)(F)F)C1 (stereo not drawn) [Example 262, 5-Amino-2-phenyl-pyrimidine-4-carboxylic acid (3-hydroxy-3-trifluoromethyl-3,4,5,6-tetra-hydro-2H-[1,4′]bipyridinyl-3′-yl)-amide] | – | – | – | < 1 | 1 to 10 | < 1 | – |

From patent US20140249135A1, “PIM KINASE INHIBITORS AND METHODS OF THEIR USE” (NOVARTIS AG, priority 2007, published 2014)
